Source: paper PMC7366380, “Discovery of a Potent and Selective Covalent Inhibitor and Activity-Based Probe for the Deubiquitylating Enzyme UCHL1, with Antifibrotic Activity” (Journal of the American Chemical Society, 2020)
Values joined by “and” are separate entries in the source; they are usually repeats but may differ in a detail not shown here. Equal values may be shown once.

How the values were obtained:
Assay in all cases: In-cell proteome-wide competitive ABPP, HEK293: other DUBs and proteins
[1] = molecular target: DUBs and other proteins in HEK293 cells (Homo sapiens, UniProt O15372); settings: for Log2 reporter intensity values, EIF3H: TMT replicates; for Log2 reporter intensity values / Log2 reporter intensity values: EIF3H: replicates A-C; for Log2 reporter intensity values: EIF3H: competition with ABP 2, DMSO substract (FC)
Sequence of DUBs and other proteins in HEK293 cells (Homo sapiens, UniProt O15372) (O15372 whole entry): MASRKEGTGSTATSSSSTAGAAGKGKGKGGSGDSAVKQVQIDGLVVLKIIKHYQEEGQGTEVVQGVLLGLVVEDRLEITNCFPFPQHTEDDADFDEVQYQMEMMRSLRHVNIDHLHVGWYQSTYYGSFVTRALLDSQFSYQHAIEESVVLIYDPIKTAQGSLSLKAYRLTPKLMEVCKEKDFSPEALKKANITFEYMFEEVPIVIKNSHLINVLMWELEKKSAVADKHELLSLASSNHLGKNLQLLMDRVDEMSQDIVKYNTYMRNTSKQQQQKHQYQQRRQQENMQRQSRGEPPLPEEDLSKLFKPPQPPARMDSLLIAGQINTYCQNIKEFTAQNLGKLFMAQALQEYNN

[2] = molecular target: T1, DUBs and other proteins in HEK293 cells (Homo sapiens, UniProt P45974); settings: replicates A-C; for Log2 reporter intensity values: USP5: competition with ABP 2, DMSO substract (FC); for Log2 reporter intensity values: USP5, DMSO subtracted
T1 sequence (P45974 1-858): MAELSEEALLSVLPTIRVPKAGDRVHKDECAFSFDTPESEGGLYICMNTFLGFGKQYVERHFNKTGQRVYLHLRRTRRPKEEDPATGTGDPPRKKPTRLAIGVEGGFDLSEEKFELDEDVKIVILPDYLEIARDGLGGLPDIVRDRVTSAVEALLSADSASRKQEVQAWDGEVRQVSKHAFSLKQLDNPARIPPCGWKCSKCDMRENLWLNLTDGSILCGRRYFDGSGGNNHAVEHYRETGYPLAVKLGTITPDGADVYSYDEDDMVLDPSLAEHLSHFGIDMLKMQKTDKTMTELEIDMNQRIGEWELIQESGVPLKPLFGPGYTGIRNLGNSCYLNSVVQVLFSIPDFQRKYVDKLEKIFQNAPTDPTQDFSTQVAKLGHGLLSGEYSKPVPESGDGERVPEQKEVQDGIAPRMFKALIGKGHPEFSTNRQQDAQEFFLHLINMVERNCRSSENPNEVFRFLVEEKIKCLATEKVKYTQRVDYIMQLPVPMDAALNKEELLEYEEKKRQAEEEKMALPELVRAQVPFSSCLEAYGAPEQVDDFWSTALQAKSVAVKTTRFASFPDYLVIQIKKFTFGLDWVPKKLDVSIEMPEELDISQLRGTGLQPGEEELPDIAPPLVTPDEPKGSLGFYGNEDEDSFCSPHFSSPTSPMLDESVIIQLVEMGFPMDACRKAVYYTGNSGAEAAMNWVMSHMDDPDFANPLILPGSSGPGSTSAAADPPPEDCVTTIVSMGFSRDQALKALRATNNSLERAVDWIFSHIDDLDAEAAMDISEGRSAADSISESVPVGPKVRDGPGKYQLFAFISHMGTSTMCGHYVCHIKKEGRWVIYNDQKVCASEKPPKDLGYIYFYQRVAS

[3] = molecular target: T2, DUBs and other proteins in HEK293 cells (Homo sapiens, UniProt Q86UV5); settings: for Log2 reporter intensity values: USP48: competition with ABP 2, DMSO substract (FC), replicates A-B; for Log2 reporter intensity values: USP48, DMSO subtracted
T2 sequence (Q86UV5 1-1035): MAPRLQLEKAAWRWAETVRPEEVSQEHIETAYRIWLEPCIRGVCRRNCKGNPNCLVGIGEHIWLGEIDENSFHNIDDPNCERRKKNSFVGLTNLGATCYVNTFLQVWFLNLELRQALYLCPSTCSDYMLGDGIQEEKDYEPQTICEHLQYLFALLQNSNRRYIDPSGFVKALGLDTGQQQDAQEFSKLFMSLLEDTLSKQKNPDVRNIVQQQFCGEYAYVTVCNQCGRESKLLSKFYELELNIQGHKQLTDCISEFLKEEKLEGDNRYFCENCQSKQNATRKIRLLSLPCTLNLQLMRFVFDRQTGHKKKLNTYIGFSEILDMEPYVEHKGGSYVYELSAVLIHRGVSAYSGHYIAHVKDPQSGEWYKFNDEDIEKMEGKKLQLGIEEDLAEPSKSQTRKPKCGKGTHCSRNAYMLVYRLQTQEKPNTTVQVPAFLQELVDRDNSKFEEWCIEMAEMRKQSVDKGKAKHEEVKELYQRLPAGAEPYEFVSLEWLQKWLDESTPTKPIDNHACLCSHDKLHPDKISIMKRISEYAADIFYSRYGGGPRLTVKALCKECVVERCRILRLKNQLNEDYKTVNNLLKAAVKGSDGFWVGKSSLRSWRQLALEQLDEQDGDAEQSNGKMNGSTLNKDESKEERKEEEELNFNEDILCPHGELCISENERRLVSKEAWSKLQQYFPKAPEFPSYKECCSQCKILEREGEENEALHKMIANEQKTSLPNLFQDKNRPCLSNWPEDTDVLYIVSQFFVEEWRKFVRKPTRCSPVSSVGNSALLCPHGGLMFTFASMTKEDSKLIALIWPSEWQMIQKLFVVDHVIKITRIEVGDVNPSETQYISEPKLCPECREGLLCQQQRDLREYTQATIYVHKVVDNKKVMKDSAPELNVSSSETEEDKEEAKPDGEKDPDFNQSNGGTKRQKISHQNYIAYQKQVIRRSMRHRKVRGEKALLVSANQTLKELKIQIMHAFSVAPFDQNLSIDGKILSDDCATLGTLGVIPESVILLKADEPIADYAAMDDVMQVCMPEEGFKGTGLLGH

[4] = molecular target: DUBs and other proteins in HEK293 cells (Homo sapiens, UniProt Q92905); settings: for Log2 reporter intensity values, COPS5: TMT replicates; for Log2 reporter intensity values / Log2 reporter intensity values: COPS5: replicates A-C; for Log2 reporter intensity values: COPS5: competition with ABP 2, DMSO substract (FC)
Sequence of DUBs and other proteins in HEK293 cells (Homo sapiens, UniProt Q92905) (Q92905 whole entry): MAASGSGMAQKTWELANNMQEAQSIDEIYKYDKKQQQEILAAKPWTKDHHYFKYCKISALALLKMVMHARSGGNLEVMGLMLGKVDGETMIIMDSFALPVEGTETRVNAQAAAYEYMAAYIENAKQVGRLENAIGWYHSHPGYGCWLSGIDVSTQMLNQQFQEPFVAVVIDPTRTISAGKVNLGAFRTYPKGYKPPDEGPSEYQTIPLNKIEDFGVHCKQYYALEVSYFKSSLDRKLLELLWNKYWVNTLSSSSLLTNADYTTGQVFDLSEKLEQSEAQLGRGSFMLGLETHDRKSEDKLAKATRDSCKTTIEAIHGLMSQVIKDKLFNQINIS

[5] = molecular target: DUBs and other proteins in HEK293 cells (Homo sapiens, UniProt Q93008); settings: replicates A-C; for Log2 reporter intensity values: USP9X;USP9Y: competition with ABP 2, DMSO substract (FC); for Log2 reporter intensity values: USP9X;USP9Y, DMSO subtracted
Sequence of DUBs and other proteins in HEK293 cells (Homo sapiens, UniProt Q93008) (Q93008 whole entry): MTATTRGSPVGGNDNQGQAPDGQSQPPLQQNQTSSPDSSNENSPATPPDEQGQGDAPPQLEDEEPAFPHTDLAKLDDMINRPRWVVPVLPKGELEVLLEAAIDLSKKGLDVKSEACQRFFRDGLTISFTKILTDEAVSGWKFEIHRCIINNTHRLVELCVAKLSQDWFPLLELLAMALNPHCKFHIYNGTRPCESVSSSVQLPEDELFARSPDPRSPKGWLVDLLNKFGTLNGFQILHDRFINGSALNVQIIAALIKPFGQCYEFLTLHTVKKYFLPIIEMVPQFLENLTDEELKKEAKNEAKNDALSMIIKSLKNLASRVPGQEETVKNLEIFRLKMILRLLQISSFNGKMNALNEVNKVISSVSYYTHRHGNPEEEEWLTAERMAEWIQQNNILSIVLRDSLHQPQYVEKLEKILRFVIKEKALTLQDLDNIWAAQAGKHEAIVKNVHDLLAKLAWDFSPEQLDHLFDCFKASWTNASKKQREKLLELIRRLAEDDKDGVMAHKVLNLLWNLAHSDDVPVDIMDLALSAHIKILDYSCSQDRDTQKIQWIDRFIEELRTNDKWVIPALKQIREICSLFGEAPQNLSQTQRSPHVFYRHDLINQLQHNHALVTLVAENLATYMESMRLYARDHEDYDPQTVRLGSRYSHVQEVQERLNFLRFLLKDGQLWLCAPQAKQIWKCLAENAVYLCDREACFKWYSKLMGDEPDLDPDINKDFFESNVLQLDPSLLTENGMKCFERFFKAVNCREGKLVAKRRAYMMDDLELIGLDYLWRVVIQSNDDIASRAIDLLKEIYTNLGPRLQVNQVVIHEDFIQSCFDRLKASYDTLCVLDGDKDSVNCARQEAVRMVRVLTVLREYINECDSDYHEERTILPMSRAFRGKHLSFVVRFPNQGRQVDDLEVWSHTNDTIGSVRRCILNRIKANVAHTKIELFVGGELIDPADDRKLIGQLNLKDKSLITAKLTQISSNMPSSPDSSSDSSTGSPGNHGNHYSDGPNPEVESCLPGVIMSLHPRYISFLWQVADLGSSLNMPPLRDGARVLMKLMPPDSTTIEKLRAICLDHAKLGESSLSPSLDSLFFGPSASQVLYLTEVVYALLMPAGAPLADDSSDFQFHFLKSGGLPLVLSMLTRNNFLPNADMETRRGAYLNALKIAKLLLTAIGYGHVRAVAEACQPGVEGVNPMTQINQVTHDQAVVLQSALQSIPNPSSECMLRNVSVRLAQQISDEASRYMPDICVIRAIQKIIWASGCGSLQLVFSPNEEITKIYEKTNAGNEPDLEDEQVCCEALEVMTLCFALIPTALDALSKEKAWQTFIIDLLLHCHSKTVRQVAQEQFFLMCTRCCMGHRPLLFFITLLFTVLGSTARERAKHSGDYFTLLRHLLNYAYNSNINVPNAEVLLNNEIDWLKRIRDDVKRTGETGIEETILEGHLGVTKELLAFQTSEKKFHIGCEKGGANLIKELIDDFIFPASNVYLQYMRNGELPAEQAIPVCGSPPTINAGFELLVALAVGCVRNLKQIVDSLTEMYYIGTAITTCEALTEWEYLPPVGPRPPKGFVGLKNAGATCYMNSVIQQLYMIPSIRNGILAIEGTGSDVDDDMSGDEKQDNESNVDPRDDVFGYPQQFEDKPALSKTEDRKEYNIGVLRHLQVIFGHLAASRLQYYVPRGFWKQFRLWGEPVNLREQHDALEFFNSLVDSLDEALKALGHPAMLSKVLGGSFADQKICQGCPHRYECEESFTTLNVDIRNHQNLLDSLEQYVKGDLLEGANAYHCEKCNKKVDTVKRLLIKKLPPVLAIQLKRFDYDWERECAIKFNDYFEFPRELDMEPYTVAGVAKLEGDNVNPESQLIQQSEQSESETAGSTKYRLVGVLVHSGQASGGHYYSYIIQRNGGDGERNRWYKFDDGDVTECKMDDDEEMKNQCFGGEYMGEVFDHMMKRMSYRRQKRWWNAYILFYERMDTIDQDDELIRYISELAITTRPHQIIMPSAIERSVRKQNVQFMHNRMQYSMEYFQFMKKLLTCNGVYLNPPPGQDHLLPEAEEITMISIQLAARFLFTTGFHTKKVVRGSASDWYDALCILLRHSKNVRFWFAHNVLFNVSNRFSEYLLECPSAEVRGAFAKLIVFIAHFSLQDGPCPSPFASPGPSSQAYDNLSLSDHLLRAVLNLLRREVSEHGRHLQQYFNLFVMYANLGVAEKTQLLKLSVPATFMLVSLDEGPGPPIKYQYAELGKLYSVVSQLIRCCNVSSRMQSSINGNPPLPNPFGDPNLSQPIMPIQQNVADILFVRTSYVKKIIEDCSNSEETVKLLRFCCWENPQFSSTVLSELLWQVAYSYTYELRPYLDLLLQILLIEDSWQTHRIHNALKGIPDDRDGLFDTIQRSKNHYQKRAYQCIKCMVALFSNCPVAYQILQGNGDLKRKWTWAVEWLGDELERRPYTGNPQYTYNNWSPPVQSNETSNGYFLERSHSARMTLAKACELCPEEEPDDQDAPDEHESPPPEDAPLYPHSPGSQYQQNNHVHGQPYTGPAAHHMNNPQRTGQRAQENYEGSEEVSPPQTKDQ

[6] = 5 μM LDN-57444 (60 min) + 20 nM ABP 2 (10 min), All values
[7] = 5 μM LDN-57444 (60 min) + 20 nM ABP 2 (10 min), DMSO subtracted
[8] = 25 μM LDN-57444 (60 min) + 20 nM ABP 2 (10 min), All values
[9] = 25 μM LDN-57444 (60 min) + 20 nM ABP 2 (10 min), DMSO subtracted

CC(=O)O/N=C1\C(=O)N(Cc2cc(Cl)ccc2Cl)c2ccc(Cl)cc21 [LDN]
Log2 reporter intensity values, EIF3H [1, 6]: 0.06362 and 0.03651 and 0.05305
Log2 reporter intensity values, EIF3H [1, 7]: 0.03403 and 0.006918 and 0.02346
Log2 reporter intensity values, EIF3H [1, 8]: 0.05041 and 0.03867 and 0.01604
Log2 reporter intensity values, EIF3H [1, 9]: 0.02082 and 0.009076 and -0.01355
Log2 t-test Difference ([1]; EIF3H, LDN - 5 μM): 0.02512
Log2 reporter intensity values ([1]; EIF3H, LDN at 5 μM, DMSO subtracted): 0.03403 and 0.006918 and 0.02346
Log2 reporter intensity values ([1]; EIF3H, LDN at 25 μM, DMSO subtracted): 0.02082 and 0.009076 and -0.01355
Log2 reporter intensity values ([1]; EIF3H, LDN_5 μM, DMSO subtracted): 0.02373 and 0.004663 and 0.01625
Log2 reporter intensity values ([1]; EIF3H, LDN_25 μM, DMSO subtracted): 0.01439 and 0.006167 and -0.009494
Log2 reporter intensity values: EIF3H ([1]; LDN at 5 μM): 1.024 and 1.005 and 1.016
Log2 reporter intensity values: EIF3H ([1]; LDN at 25 μM): 1.015 and 1.006 and 0.9907
Log2 reporter intensity values: USP5 ([2]; LDN at 5 μM): 1.037 and 0.9788 and 0.9532
Log2 reporter intensity values: USP5 ([2]; LDN at 25 μM): 1.021 and 0.9648 and 0.9864
Log2 reporter intensity values ([2]; LDN at 5 μM): 0.05306 and -0.03094 and -0.06922
Log2 reporter intensity values ([2]; LDN at 25 μM): 0.02936 and -0.0517 and -0.01971
Log2 reporter intensity values ([2]; LDN_5 μM): 0.03714 and -0.02154 and -0.04717
Log2 reporter intensity values ([2]; LDN_25 μM): 0.02024 and -0.03553 and -0.01389
Log2 reporter intensity values: USP48 ([3]; LDN at 5 μM): 1.048 and 1.119
Log2 reporter intensity values: USP48 ([3]; LDN at 25 μM): 1.118 and 1.08
Log2 reporter intensity values ([3]; LDN at 5 μM, replicates A-C): 0.0673 and 0.1618
Log2 reporter intensity values ([3]; LDN at 25 μM, replicates A-C): 0.1604 and 0.1117
Log2 reporter intensity values ([3]; LDN_5 μM, replicates A-B (C NaN)): 0.04647 and 0.1174
Log2 reporter intensity values ([3]; LDN_25 μM, replicates A-B (C NaN)): 0.1163 and 0.0792
Log2 reporter intensity values, COPS5 [4, 6]: 0.02618 and -0.0337 and -0.04942
Log2 reporter intensity values, COPS5 [4, 7]: 0.0843 and 0.02441 and 0.00869
Log2 reporter intensity values, COPS5 [4, 8]: 0.09342 and -0.06531 and -0.07503
Log2 reporter intensity values, COPS5 [4, 9]: 0.1515 and -0.007194 and -0.01692
Log2 t-test Difference ([4]; COPS5, LDN - 5 μM): -0.1232
Log2 reporter intensity values ([4]; COPS5, LDN at 5 μM, DMSO subtracted): 0.0843 and 0.02441 and 0.00869
Log2 reporter intensity values ([4]; COPS5, LDN at 25 μM, DMSO subtracted): 0.1515 and -0.007194 and -0.01692
Log2 reporter intensity values ([4]; COPS5, LDN_5 μM, DMSO subtracted): 0.06009 and 0.01698 and 0.005959
Log2 reporter intensity values ([4]; COPS5, LDN_25 μM, DMSO subtracted): 0.1107 and -0.005057 and -0.01174
Log2 reporter intensity values: COPS5 ([4]; LDN at 5 μM): 1.06 and 1.017 and 1.006
Log2 reporter intensity values: COPS5 ([4]; LDN at 25 μM): 1.111 and 0.995 and 0.9883
Log2 reporter intensity values: USP9X;USP9Y ([5]; LDN at 5 μM): 0.9588 and 0.9416 and 0.9642
Log2 reporter intensity values: USP9X;USP9Y ([5]; LDN at 25 μM): 0.918 and 0.963 and 0.9662
Log2 reporter intensity values ([5]; LDN at 5 μM): -0.06063 and -0.08675 and -0.05259
Log2 reporter intensity values ([5]; LDN at 25 μM): -0.1235 and -0.05434 and -0.04956
Log2 reporter intensity values ([5]; LDN_5 μM): -0.04118 and -0.05839 and -0.03582
Log2 reporter intensity values ([5]; LDN_25 μM): -0.08207 and -0.03699 and -0.0338
